The results in this text go back to patent US11591355B2 (Peloton Therapeutics, Inc., priority 2017, dated 2023).

As a reminder, the IC50 is the midpoint of a concentration-inhibition curve.

Structures are written as SMILES.

One test has as its target T1, Human CD73 (Homo sapiens, UniProt P21589).
T1 construct: purchased R&D Systems; host or cells: CHO cells
T1 sequence (P21589 27-549): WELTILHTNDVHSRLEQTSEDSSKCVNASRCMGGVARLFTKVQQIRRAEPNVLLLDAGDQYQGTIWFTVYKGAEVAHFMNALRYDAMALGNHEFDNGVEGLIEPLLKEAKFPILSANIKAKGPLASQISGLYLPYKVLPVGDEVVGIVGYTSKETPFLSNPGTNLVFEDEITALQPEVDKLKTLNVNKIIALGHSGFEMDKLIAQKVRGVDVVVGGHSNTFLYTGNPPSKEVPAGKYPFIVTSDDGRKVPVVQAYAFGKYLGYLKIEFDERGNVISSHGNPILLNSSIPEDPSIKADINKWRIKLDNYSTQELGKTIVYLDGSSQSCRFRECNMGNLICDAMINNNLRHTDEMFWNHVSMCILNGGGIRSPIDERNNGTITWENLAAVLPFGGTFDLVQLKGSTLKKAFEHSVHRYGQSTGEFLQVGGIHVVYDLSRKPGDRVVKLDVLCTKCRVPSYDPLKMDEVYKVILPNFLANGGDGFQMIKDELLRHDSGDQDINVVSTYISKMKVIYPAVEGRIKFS
Briefly: CD73 Enzyme Assay.
Conditions: not given
Type of test: biochemical.
With `CCOP(=O)(COC[C@H]1O[C@@H](n2ccc3c(NC4CCCC4)nc(Cl)nc32)[C@H](O)[C@@H]1O)OCC` [Compound 185], the IC50 is above 1000 nM.
The same measure, in the same setting: the figure for `O=P(COC[C@H]1O[C@@H](n2ccc3c(NC4CCCC4)nc(Cl)nc32)[C@H](O)[C@@H]1O)(Oc1ccc(F)cc1)Oc1ccc(F)cc1` [Compound 227, (2R,3S,4R,5R)-2-[bis (4-fluorophenoxy)-phosphorylmethoxy-methyl]-5-[2-chloro-4-(cyclopentylamino)-pyrrolo[2,3-d]-pyrimidin-7-yl]tetra-hydrofuran-3,4-diol] is above 1000 nM; for `O=P(O)(COC[C@H]1O[C@@H](n2ccc3c(NC4CCCC4)nc(Cl)nc32)[C@H](O)[C@@H]1O)Oc1ccc(F)cc1` [Compound 228, [(2R,3S,4R,5R)-5-[2-chloro-4-(cyclopentyl-amino)pyrrolo[2,3-d]-pyrimidin-7-yl]-3,4-dihydroxy-tetrahydro-furan-2-yl]methoxy-methyl-(4-fluoro-phenoxy)phosphinic acid] it is above 1000 nM.

The test is the same for the next values; noted with them: 0.25 nM hCD73, 25 μM AMP, kinetic read at 360 nm; read-out: CD73 Enzyme Assay IC50.
Consider `O=P(O)(O)COC[C@H]1O[C@@H](n2cnc3c(NCCCO)ncnc32)[C@H](O)[C@@H]1O` [Compound 26, [(2R,3S,4R,5R)-3,4-dihydroxy-5-[6-(3-hydroxypropylamino)-purin-9-yl]tetrahydro-furan-2-yl]methoxy-methylphosphonic acid], for which the IC50 was above 1000 nM.
The same measure, in the same setting: the figure for `O=P(O)(O)COC[C@H]1O[C@@H](n2cnc3c(NCc4cccc(CO)c4)ncnc32)[C@H](O)[C@@H]1O` [Compound 64, [(2R,3S,4R,5R)-3,4-dihydroxy-5-[6-[[3-(hydroxymethyl)-phenyl]methylamino]-purin-9-yl]tetrahydro-furan-2-yl]methoxy-methylphosphonic acid] is above 1000 nM; for `O=P(O)(O)COC[C@H]1O[C@@H](n2cnc3c(NC4(c5ccccc5)CC4)ncnc32)[C@H](O)[C@@H]1O` [Compound 23] it is above 1000 nM; for `O=P(O)(O)COC[C@H]1O[C@@H](n2ccc3c(NC4CCCC4)nc(OCc4ccccn4)nc32)[C@H](O)[C@@H]1O` [Compound 264, [(2R,3S,4R,5R)-5-[4-(cyclopentylamino)-2-(2-pyridylmethoxy)-pyrrolo[2,3-d]pyrimidin-7-yl]-3,4-dihydroxy-tetrahydrofuran-2-yl]-methoxymethylphos-phonic acid] it is 100 to 1000 nM.
With `O=P(O)(O)COC[C@H]1O[C@@H](n2cnc3c(NCc4ccccc4)nc(C4CC4)nc32)[C@H](O)[C@@H]1O` [Compound 39, [(2R,3S,4R,5R)-5-[6-(benzylamino)-2-cyclopropyl-purin-9-yl]-3,4-dihydroxy-tetrahydrofuran-2-yl]-methoxymethyl phos-phonic acid], the IC50 was above 1000 nM.
Same read-out and setting: as for `CS(=O)(=O)c1cccc(CNc2ncnc3c2ncn3[C@@H]2O[C@H](COCP(=O)(O)O)[C@@H](O)[C@H]2O)c1` [Compound 66], the figure is above 1000 nM; as for `CC(C)N(C)c1ncnc2c1ncn2[C@@H]1O[C@H](COCP(=O)(O)O)[C@@H](O)[C@H]1O` [Compound 31], above 1000 nM.
Same read-out and setting: the figure for `O=P(O)(O)COC[C@H]1O[C@@H](n2cnc3c(NCc4ccccc4)nc(-c4ccccc4)nc32)[C@H](O)[C@@H]1O` [Compound 8, [(2R,3S,4R,5R)-5-[6-(benzylamino)-2-phenyl-purin-9-yl]-3,4-dihydroxy-tetrahydrofuran-2-yl]methoxymethylphosphonic acid] is 100 to 1000 nM.
On the same count and under the same terms, as for `O=C(O)c1nc(NCc2ccccc2)c2ncn([C@@H]3O[C@H](COCP(=O)(O)O)[C@@H](O)[C@H]3O)c2n1` [Compound 6, 6-(benzylamino)-9-[(2R,3R,4S,5R)-3,4-dihydroxy-5-(phos-phonomethoxy-methyl)tetrahydro-furan-2-yl]purine-2-carboxylic acid], the figure is above 1000 nM; as for `O=P(COC[C@H]1O[C@@H](n2ccc3c(NC4CCCC4)nc(Cl)nc32)[C@H](O)[C@@H]1O)(OCC(F)(F)F)OCC(F)(F)F` [Compound 226, (2R,3S,4R,5R)-2-[bis(2,2,2-trifluoro-ethoxy)phosphoryl-methoxymethyl]-5-[2-chloro-4-(cyclopentyl-amino)pyrrolo[2,3-d]-pyrimidin-7-yl]tetra-hydrofuran-3,4-diol], above 1000 nM; as for `O=P(O)(O)COC[C@H]1O[C@@H](n2ccc3c(N[C@H]4CCNC4)nc(Cl)nc32)[C@H](O)[C@@H]1O` [Compound 242, [(2R,3S,4R,5R)-5-[2-chloro-4-[[(3S)-pyrrolidin-3-yl]-amino]pyrrolo[2,3-d]-pyrimidin-7-yl]-3,4-dihydroxy-tetrahydro-furan-2-yl]methoxy-methylphosphonic acid], above 1000 nM.
In the case of `O=P(O)(O)C(SC[C@H]1O[C@@H](n2cnc3c(NCc4ccccc4)ncnc32)[C@H](O)[C@@H]1O)c1ccccc1` (stereo partly drawn) [Compound 149, [[(2S,3S,5R)-5-[6-(benzylamino)purin-9-yl]-3,4-dihydroxy-tetrahydrofuran-2-yl]methylsulfanyl-phenylmethyl]phos-phonic acid], the IC50 was above 1000 nM.
On to `O=C(OCOP(=O)(COC[C@H]1O[C@@H](n2ccc3c(NC4CCCC4)nc(Cl)nc32)[C@H](O)[C@@H]1O)OCOC(=O)N1CCOCC1)N1CCOCC1` [Compound 238, [[(2R,3S,4R,5R)-5-[2-chloro-4-(cyclopentyl-amino)pyrrolo[2,3-d]-pyrimidin-7-yl]-3,4-dihydroxy-tetrahydro-furan-2-yl]methoxy-methyl-(morpholine-4-carbonyloxymeth-oxy)phosphoryl]oxy-methyl morpholine-4-carboxylate], for which the IC50 was in the range of 100 to 1000 nM.
Still for that read-out and setting: the figure for `N#Cc1nc(NC2CCCC2)c2c(C#N)cn([C@@H]3O[C@H](COCP(=O)(O)O)[C@@H](O)[C@H]3O)c2n1` [Compound 210, [(2R,3S,4R,5R)-5-[2,5-dicyano-4-(cyclopentyl-amino)pyrrolo[2,3-d]-pyrimidin-7-yl]-3,4-dihydroxy-tetrahydro-furan-2-yl]methoxy-methylphosphonic acid] is 100 to 1000 nM; for `O=P(O)(O)COC[C@H]1O[C@@H](n2cnc3c(NC4CC4)ncnc32)[C@H](O)[C@@H]1O` [Compound 24, [(2R,3S,4R,5R)-5-[6-(cyclopropylamino)-purin-9-yl]-3,4-dihydroxy-tetrahydro-furan-2-yl]methoxy-methylphosphonic acid] it is above 1000 nM.
Same read-out and setting: the figure for `O=P(O)(O)COC[C@H]1O[C@@H](n2cnc3c(NC4CCCCC4)ncnc32)[C@H](O)[C@@H]1O` [Compound 35, [(2R,3S,4R,5R)-5-[6-(cyclohexylamino)-purin-9-yl]-3,4-dihydroxy-tetrahydro-furan-2-yl]methoxy-methylphosphonic acid] is 100 to 1000 nM; for `O=P(O)(O)COC[C@H]1O[C@@H](n2cnc3c(N4CCCC4c4ccccc4)ncnc32)[C@H](O)[C@@H]1O` (stereo partly drawn) [Compound 45, [(2R,3S,4R,5R)-3,4-dihydroxy-5-[6-(2-phenylpyrrolidin-1-yl)-purin-9-yl]tetrahydro-furan-2-yl]methoxy-methylphosphonic acid] it is 100 to 1000 nM.
For the molecule `CC(C)(C)C(=O)OCOP(=O)(C[S+]([O-])C[C@H]1O[C@@H](n2ccc3c(NC4CCCC4)nc(Cl)nc32)[C@H](O)[C@@H]1O)OCOC(=O)C(C)(C)C` (stereo partly drawn) [Compound 166, [[(2S,3S,4R,5R)-5-[2-chloro-4-(cyclopentyl-amino)pyrrolo[2,3-d]-pyrimidin-7-yl]-3,4-dihydroxy-tetrahydro-furan-2-yl]methyl-sulfinylmethyl-(2,2-dimethylpropanoyloxy-methoxy)phosphoryl]-oxymethyl 2,2-dimethylpropanoate], the IC50 is above 1000 nM.
Turning to `O=P(O)(O)COC[C@H]1O[C@@H](n2cnc3c(-c4ccccc4F)ncnc32)[C@H](O)[C@@H]1O` [Compound 53, [(2R,3S,4R,5R)-5-[6-(2-fluorophenyl)purin-9-yl]-3,4-dihydroxy-tetrahydrofuran-2-yl]methoxymethyl-phosphonic acid], the IC50 is above 1000 nM.
Still for that read-out and setting: the figure for `O=P(O)(O)COC[C@H]1O[C@@H](n2cnc3c(NCc4ccccc4)nc(-c4cn[nH]c4)nc32)[C@H](O)[C@@H]1O` [Compound 10, [(2R,3S,4R,5R)-5-[6-(benzylamino)-2-(1H-pyrazol-4-yl)purin-9-yl]-3,4-dihydroxy-tetrahydrofuran-2-yl]-methoxymethylphos-phonic acid] is 100 to 1000 nM.
As for `NCCNc1ncnc2c1ncn2[C@@H]1O[C@H](COCP(=O)(O)O)[C@@H](O)[C@H]1O` [Compound 25, [(2R,3S,4R,5R)-5-[6-(2-aminoethylamino)-purin-9-yl]-3,4-dihydroxy-tetrahydro-furan-2-yl]methoxy-methylphosphonic acid], the IC50 is above 1000 nM.
Regarding `O=P(O)(O)COC[C@H]1O[C@@H](n2cnc3c(NCc4ccncc4)ncnc32)[C@H](O)[C@@H]1O` [Compound 28, [(2R,3S,4R,5R)-3,4-dihydroxy-5-[6-(4-pyridylmethylamino)-purin-9-yl]tetrahydro-furan-2-yl]methoxy-methylphosphonic acid], the IC50 is above 1000 nM.
On the same count and under the same terms, as for `O=P(O)(O)COC[C@H]1O[C@@H](c2scc3c(N4CCCC4)nc(O)nc23)[C@H](O)[C@@H]1O` [Compound 302], the figure is above 1000 nM.
Still for that read-out and setting: the figure for `O=P(O)(O)COC[C@H]1O[C@@H](n2cnc3c2ncn2cnnc32)[C@H](O)[C@@H]1O` [Compound 37] is above 1000 nM.
